Test results reported in ChEMBL document CHEMBL1909046, “DrugMatrix in vitro pharmacology data”.

Tests used:
[1] = DRUGMATRIX: GABAA, Chloride Channel, TBOB radioligand binding (ligand: [3H] TBOB); type: cell membranes, Rattus norvegicus, Wistar, Cerebral cortex, Membrane; settings: Not Active = under 50% inhibition at 10 µM
[2] = molecular target: T1, Estrogen receptor (Homo sapiens, UniProt P03372); settings: sf9; further: in other assays of this panel Not Active means under 50% inhibition at 10 µM
T1 sequence (P03372 whole entry): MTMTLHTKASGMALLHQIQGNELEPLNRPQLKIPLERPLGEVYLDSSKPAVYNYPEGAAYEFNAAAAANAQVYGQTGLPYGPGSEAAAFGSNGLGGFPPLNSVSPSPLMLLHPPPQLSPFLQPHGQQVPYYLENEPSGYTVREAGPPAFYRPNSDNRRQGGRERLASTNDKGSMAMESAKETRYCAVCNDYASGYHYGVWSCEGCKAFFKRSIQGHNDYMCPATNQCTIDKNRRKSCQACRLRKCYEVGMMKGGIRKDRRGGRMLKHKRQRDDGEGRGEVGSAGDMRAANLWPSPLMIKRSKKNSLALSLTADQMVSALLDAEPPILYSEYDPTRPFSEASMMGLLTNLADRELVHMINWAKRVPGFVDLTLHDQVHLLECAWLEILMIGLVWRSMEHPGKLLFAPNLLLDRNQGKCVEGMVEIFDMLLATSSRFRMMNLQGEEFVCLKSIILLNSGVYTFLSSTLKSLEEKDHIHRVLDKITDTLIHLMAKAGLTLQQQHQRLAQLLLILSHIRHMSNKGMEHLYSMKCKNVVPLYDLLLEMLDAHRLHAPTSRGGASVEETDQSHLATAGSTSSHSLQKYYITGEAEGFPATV

[3] = molecular target: T2, Progesterone receptor (Bos taurus, UniProt Q690N0); assay: DRUGMATRIX: Progesterone radioligand binding (ligand: [3H] R-5020); type: tissue-based, Uterus; settings: Not Active = under 50% inhibition at 10 µM
T2 sequence (Q690N0 whole entry): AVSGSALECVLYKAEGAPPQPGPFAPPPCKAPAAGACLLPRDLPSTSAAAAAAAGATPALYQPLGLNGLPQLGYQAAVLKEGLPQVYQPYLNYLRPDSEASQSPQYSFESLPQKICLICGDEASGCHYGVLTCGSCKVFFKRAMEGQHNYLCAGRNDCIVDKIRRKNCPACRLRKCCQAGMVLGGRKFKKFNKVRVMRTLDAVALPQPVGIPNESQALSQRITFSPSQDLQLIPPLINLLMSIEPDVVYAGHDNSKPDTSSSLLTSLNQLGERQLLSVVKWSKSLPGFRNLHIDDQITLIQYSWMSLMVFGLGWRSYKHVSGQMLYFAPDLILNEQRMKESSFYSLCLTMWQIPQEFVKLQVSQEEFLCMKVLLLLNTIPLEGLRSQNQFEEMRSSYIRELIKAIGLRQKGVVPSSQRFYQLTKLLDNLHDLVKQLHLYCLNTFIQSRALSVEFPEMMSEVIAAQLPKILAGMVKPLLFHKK

[4] = molecular target: T3, Alpha-1B adrenergic receptor (Rattus norvegicus, UniProt P15823); assay: DRUGMATRIX: Alpha-1B adrenergic receptor radioligand binding (ligand: prazosin); type: cell membranes, Wistar, Liver, Membrane; settings: Not Active = under 50% inhibition at 10 µM
T3 sequence (P15823 whole entry): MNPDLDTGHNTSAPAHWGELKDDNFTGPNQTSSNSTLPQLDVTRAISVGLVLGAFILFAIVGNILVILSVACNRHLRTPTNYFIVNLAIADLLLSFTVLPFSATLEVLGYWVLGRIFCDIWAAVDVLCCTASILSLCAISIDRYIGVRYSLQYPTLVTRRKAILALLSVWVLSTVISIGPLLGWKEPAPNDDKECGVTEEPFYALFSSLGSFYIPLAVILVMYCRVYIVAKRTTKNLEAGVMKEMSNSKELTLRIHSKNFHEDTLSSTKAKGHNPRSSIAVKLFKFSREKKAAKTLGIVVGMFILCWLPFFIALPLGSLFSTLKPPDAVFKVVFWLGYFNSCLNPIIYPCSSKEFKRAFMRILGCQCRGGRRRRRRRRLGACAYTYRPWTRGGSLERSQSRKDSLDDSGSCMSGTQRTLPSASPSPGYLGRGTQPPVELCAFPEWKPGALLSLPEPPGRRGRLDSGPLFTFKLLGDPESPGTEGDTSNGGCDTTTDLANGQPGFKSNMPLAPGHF

[5] = molecular target: T4, D(4) dopamine receptor (Homo sapiens, UniProt P21917); assay: DRUGMATRIX: Dopamine D4.2 radioligand binding (ligand: [3H] Spiperone); type: cell membranes, CHO-K1, Membrane; settings: cho-k1; Not Active = under 50% inhibition at 10 µM
T4 sequence (P21917 whole entry): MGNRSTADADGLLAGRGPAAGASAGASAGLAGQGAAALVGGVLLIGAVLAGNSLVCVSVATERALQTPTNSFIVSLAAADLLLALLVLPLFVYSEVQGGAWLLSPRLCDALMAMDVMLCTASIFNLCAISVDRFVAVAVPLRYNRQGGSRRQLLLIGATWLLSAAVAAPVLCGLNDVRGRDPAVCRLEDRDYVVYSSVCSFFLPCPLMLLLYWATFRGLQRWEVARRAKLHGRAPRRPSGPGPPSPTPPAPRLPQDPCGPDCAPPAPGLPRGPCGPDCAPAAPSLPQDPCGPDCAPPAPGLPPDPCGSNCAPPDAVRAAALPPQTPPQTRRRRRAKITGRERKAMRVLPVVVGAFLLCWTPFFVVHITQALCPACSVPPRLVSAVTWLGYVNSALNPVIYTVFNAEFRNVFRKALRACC

[6] = molecular target: 5-hydroxytryptamine receptor 2B (Homo sapiens, UniProt P41595); type: cell membranes, CHO-K1, Membrane; settings: cho-k1; further: in other assays of this panel Not Active means under 50% inhibition at 10 µM
5-hydroxytryptamine receptor 2B, sequence (P41595 whole entry): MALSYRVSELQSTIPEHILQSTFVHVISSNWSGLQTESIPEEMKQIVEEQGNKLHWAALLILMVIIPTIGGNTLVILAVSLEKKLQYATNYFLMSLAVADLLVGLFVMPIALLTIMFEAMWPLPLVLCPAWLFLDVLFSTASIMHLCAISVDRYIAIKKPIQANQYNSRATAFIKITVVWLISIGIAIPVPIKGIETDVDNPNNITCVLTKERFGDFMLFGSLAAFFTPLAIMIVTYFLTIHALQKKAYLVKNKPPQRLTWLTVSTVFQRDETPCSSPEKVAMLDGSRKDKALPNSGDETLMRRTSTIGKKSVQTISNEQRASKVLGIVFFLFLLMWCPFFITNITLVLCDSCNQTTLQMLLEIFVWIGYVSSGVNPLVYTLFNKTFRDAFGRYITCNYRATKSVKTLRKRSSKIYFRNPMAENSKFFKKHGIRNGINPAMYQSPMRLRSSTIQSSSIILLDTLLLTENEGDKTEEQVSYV

NC1CCN(c2nc3c(cc2F)c(=O)c(C(=O)O)cn3-c2ccc(F)cc2F)C1 (stereo not given) [TOSUFLOXACIN]
Not Active: IC50 [1] | Ki [1] | IC50 [2] | IC50 [3] | IC50 [4] | IC50 [5] | IC50 [6]

O=C(Nc1ccc(Br)cc1)c1cc(Br)cc(Br)c1O [TRIBROMSALAN]
Not Active: IC50 [1] | Ki [1] | IC50 [2] | IC50 [3] | IC50 [4] | IC50 [5] | IC50 [6]

CC(c1cc2ccccc2s1)N(O)C(N)=O (stereo not given) [ZILEUTON]
Not Active: IC50 [1] | Ki [1] | IC50 [2] | IC50 [3] | IC50 [4] | IC50 [5] | IC50 [6]

MANGANESE CHLORIDE ANHYDROUS
Not Active: IC50 [1] | Ki [1] | IC50 [2] | Ki [2] | IC50 [3] | Ki [3] | IC50 [4] | Ki [4] | IC50 [5] | Ki [5] | IC50 [6] | Ki [6]

SODIUM ORTHOVANAD
Not Active: IC50 [1] | Ki [1] | IC50 [2] | Ki [2] | IC50 [3] | Ki [3] | IC50 [4] | Ki [4] | IC50 [5] | Ki [5] | IC50 [6] | Ki [6]
